Test results as given in PubChem BioAssay (NCI).
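96-well plates; 48 h exposure; 5 concentrations. Endpoints by linear interpolation between flanking doses. Not reached: highest tested concentration assigned. Here, GI50 denotes the concentration required for 50% inhibition of growth. TGI marks complete inhibition of growth.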

How the values were obtained:
Assay in all cases: NCI anticancer screen, dose series, 48 h
M14 melanoma = tested on: M14 melanoma
HCC-2998 colon = tested on: HCC-2998 colon
KM12 colon = tested on: KM12 colon
SF-268 CNS = tested on: SF-268 CNS
K-562 leukemia = tested on: K-562 leukemia
UACC-62 melanoma = tested on: UACC-62 melanoma
SF-539 CNS = tested on: SF-539 CNS
SF-295 CNS = tested on: SF-295 CNS
PC-3 prostate = tested on: PC-3 prostate
T-47D breast = tested on: T-47D breast
HS 578T breast = tested on: HS 578T breast

SMILES | TGI (M14 melanoma) | TGI (HCC-2998 colon) | TGI (KM12 colon) | TGI (SF-268 CNS) | TGI (K-562 leukemia) | TGI (UACC-62 melanoma) | TGI (SF-539 CNS) | TGI (SF-295 CNS) | GI50 (PC-3 prostate) | TGI (PC-3 prostate) | GI50 (M14 melanoma) | GI50 (HCC-2998 colon) | GI50 (KM12 colon) | GI50 (SF-268 CNS) | GI50 (K-562 leukemia) | GI50 (SF-295 CNS) | GI50 (SF-539 CNS) | GI50 (T-47D breast) | TGI (T-47D breast) | TGI (HS 578T breast)
COC(=O)C(=O)Cc1nc2ccccc2o1 | > 100 µM | > 100 µM | > 100 µM | > 100 µM | > 100 µM | > 100 µM | > 100 µM |  |  |  |  |  |  |  |  |  |  |  |  | 
CN1CCN(P2(=S)Oc3ccc4ccccc4c3-c3c(ccc4ccccc34)O2)CC1 |  | 41.8 µM | 51.1 µM | > 100 µM | > 76.9 µM | > 100 µM | 42.6 µM | > 100 µM |  |  |  |  |  |  |  |  |  |  |  | 
COc1ccc(Nc2ccc([N+](=O)[O-])cc2[N+](=O)[O-])cc1CN(CCCl)CCCl | 19.6 µM | 6.9 µM | 51 µM | 16.8 µM | 18.9 µM |  | 4.85 µM | 19.7 µM | 2.04 µM | 9.59 µM | 2.72 µM | 2.15 µM | 3.66 µM | 2.44 µM | 2.47 µM | 2.79 µM | 1.85 µM | 2.6 µM | 26.4 µM | 
CCCn1c(=O)c(N2CCN(c3ccccc3)CC2)nc2sc3ccccc3c21 | > 100 µM |  | > 100 µM | > 100 µM |  | > 100 µM | > 100 µM | > 100 µM |  | > 100 µM |  |  |  |  |  |  |  |  | > 100 µM | > 100 µM
CN(C)CCNC(=O)c1cccc2c(NC(CCC(N)=O)C(=O)O)c3ccccc3nc12 (configuration not stated) | 27.5 µM | 55.6 µM | 59.1 µM | 28.3 µM | > 100 µM | > 100 µM | 21.7 µM | 25.5 µM |  | 23.5 µM |  |  |  |  |  |  |  |  |  | 
CCc1ccc2c(c1)N(CC(C)CN(C)C)c1ccccc1S2 (configuration not stated) | 4.12 µM |  | 16.6 µM | 20.5 µM | 3.5 µM | 13.1 µM | 24.1 µM | 21.5 µM |  | 17.1 µM |  |  |  |  |  |  |  |  | 10.7 µM | 18.6 µM
O=C(O)c1cc(CCc2cc(O)ccc2O)ccc1O | > 100 µM |  | > 100 µM | > 100 µM | > 100 µM | > 100 µM | > 100 µM | > 100 µM |  | > 100 µM |  |  |  |  |  |  |  |  | > 100 µM | > 100 µM
CCOC(=O)c1c[nH]c2ccc3c(c2c1=O)S(=O)(=O)CC3 (tested in a mixture with another compound) |  | > 100 µM | > 100 µM | > 100 µM | > 100 µM | > 100 µM | > 100 µM | > 100 µM |  |  |  |  |  |  |  |  |  |  |  | 
Cc1cc(NS(=O)(=O)c2ccc(NC(=O)c3cccc4c(Nc5ccc(S(N)(=O)=O)cc5)c5ccccc5nc34)cc2)no1 | > 100 µM | > 100 µM | > 100 µM | > 100 µM | > 100 µM | > 100 µM | > 100 µM |  |  |  |  |  |  |  |  |  |  |  |  | 
CCCCNc1nc(NC2OCC(OC(C)=O)C(OC(C)=O)C2OC(C)=O)c(N=O)c(=O)n1C (configuration not stated) | > 10 µM | > 10 µM | > 10 µM | > 10 µM |  | > 10 µM | > 10 µM | > 10 µM |  | > 10 µM |  |  |  |  |  |  |  |  | > 10 µM | > 10 µM
CC(C)/C(Cl)=N/OC(=O)Nc1ccc(Cl)c(Cl)c1 | 6.52 µM | 28.6 µM | 32.6 µM | 34.8 µM |  | 26.5 µM | 28.9 µM | 32.2 µM |  | 33.1 µM |  |  |  |  |  |  |  |  | 12.2 µM | 54.5 µM
OC(c1cccnc1Cl)c1nc2ccccc2c2ccnc(Cl)c12 (configuration not stated) | > 100 µM |  | > 100 µM | > 100 µM | > 100 µM | 23.7 µM | 12.4 µM | 9.75 µM |  | 69.1 µM |  |  |  |  |  |  |  |  | > 100 µM | 9.4 µM
CC(C)(CCC(C)(C)N1OC1c1ccccc1)N1OC1c1ccccc1 (configuration not stated) |  | > 100 µM | > 100 µM | > 100 µM | 37.7 µM | > 100 µM | > 100 µM | > 100 µM |  | > 100 µM |  |  |  |  |  |  |  |  | > 100 µM | > 100 µM
CNNC(=NS(=O)(=O)c1cc(C#N)c(NNC)cc1S)NNC | > 10 µM | > 10 µM | > 10 µM | > 10 µM | > 10 µM |  | > 10 µM | > 10 µM |  | > 10 µM |  |  |  |  |  |  |  |  | > 10 µM | > 10 µM
Cc1cnc2c(c1C)C(=O)c1ccccc1C2=O | > 100 µM | > 100 µM | > 100 µM | > 100 µM | > 100 µM |  | > 100 µM | > 100 µM |  | > 100 µM |  |  |  |  |  |  |  |  | > 100 µM | > 100 µM
CCCc1[nH]c2ccccc2c1-c1c(CCC)[nH]c2ccccc12 | 27.9 µM | 42.1 µM | > 61.2 µM | 28.3 µM | > 100 µM | 34.8 µM | 36.1 µM | 32.8 µM |  | 23.4 µM |  |  |  |  |  |  |  |  |  | 50.5 µM
COc1cc(CNc2nc3ccccc3nc2C(=O)O)cc(OC)c1OC |  | > 100 µM | > 100 µM | > 100 µM | > 100 µM | > 100 µM | > 100 µM | > 100 µM |  | > 100 µM |  |  |  |  |  |  |  |  | > 100 µM | > 100 µM
COc1cccc(/N=N/C(=NNC(=O)c2ccc(C)cc2)c2ccc(N(C)C)cc2)c1 | > 100 µM | > 100 µM | > 100 µM | > 100 µM | > 100 µM |  | > 100 µM | > 100 µM |  | > 100 µM |  |  |  |  |  |  |  |  | > 100 µM | > 100 µM
O=C1NC2CCCCCC2C12CCCCC2 (configuration not stated) | > 100 µM | > 100 µM | > 100 µM | > 100 µM | > 100 µM | > 100 µM | > 100 µM | > 100 µM |  |  |  |  |  |  |  |  |  |  |  | 
COc1cccc(C(=O)C#Cc2cnc(OC)nc2OC)c1 | 6.28 µM | 17.5 µM | 18.7 µM | 6.14 µM | > 100 µM | 3.08 µM |  | 31.7 µM |  | 2.88 µM |  |  |  |  |  |  |  |  |  | > 30.2 µM
O=C1CCCC/C1=C\c1ccc(Cl)c(Cl)c1 | 42.2 µM | 42.7 µM |  | 59.4 µM | 48 µM | 63.6 µM | 32.5 µM |  |  |  |  |  |  |  |  |  |  |  |  | 
